Holding throughout (type): physicochemical
Data set [1] is described as follows: Solubility test by visual observation. The note with it: thermodynamic from solid; for solubility: both water and pH 6.8 buffer; for solubility at 0.5 h: visual observation. As for the experimental part: The solubilities of 1-Na and 1-K salts were very high, so the solubility was determined by visual observation. Weighed about 5 mg of sample solid (1-Na or 1-K salt) into a 2 mL of vial, and then added 5 uL of pH 6.8 buffer solution or water each time until the solids was dissolved.
(§1) The solubilities of the three salts and the Compound 1 were studied in pH 6.8 buffer and water, and the data was summarized in Table 5.

Data set [2] is described as follows: Dynamic moisture sorption (DVS). The note with it: at 80% RH. Here is the method:
DYNAMIC MOISTURE SORPTION: Dynamic moisture adsorption and desorption were studied using IGA sorp (Hiden Isochema Ltd. Warrington, UK). About 3-5 mg of prepared sample was placed in a sample basket and hung in the measuring chamber of an IGA Sorp. For an isotherm test, the chamber temperature is maintained by a water bath at constant 25±1° C. The sample was tested at a targeted RH of 10 to 90% full cycle in step mode. The analysis was performed in 10% RH increments. Time duration at each RH was set as min.30 minutes to max. 120 min, so that the sample could reach equilibrium with the chamber environment. Data was collected in 3 minutes increment.

Data set [3] is described as follows: Solubility test, suspension filtered and filtrate analyzed by HPLC. The note with it: thermodynamic from solid, 25° C. Here is the method: The suspension was centrifuged under 200 rpm at 25° C., and 0.3 mL to 0.5 mL of […]. At each time point, the suspension was filtered to remove solid, and the filtrate was analyzed by HPLC.
as §1

Molecules are shown by their SMILES. Converted amounts (≈) assume the structure as drawn.

Broadly, the solubility is the dissolved amount per volume that the medium holds.

In the case of `N#Cc1ccc(-c2cnccc2SCC2(CC(=O)[O-])CC2)cc1.[K+]` [1-K salt, potassium 2-(1-(((3-(4-cyanophenyl)pyridin-4-yl)thio)methyl)cyclopropyl)acetate], in data set [1] (aqueous buffer), the solubility is above 400 mg/mL. Also, the solubility at 0.5 h was above 400 mg/mL in data set [1] (aqueous buffer, pH 6.8 buffer) and above 400 mg/mL in data set [1] (water). Further, the “Water adsorbed (hygroscopicity)” value in data set [2] is given as 50.63%.
`N#Cc1ccc(-c2cnccc2SCC2(CC(=O)[O-])CC2)cc1.[Na+]` [1-Na salt, sodium 2-(1-(((3-(4-cyanophenyl)pyridin-4-yl)thio)methyl)cyclopropyl)acetate]: in data set [1] (aqueous buffer), the solubility was above 400 mg/mL. Further, the solubility at 0.5 h was above 400 mg/mL in data set [1] (aqueous buffer, pH 6.8 buffer) and above 400 mg/mL in data set [1] (water). Besides, the “Water adsorbed (hygroscopicity)” value in data set [2] came out at 8.28%.
Take `N#Cc1ccc(-c2cnccc2SCC2(CC(=O)O)CC2)cc1` [Compound 1, 2-(1-(((3-(4-cyanophenyl)pyridin-4-yl)thio)methyl)cyclopropyl)acetic acid]: in data set [3] (aqueous buffer, pH 6.8 buffer), the concentration in solution (solubility at 0.5 h) came to 83 µg/mL (≈ 256 µM) and the solubility at 2 h is 84 µg/mL (≈ 259 µM). Moreover, in data set [3] (water), the solubility at 0.5 h stood at 19 µg/mL (≈ 58.6 µM) and the concentration in solution (solubility at 2 h) was 34 µg/mL (≈ 105 µM).

For the origin of these results see patent US11685720B2, “Salt forms of URAT-1 inhibitors” (INVENTISBIO CO., LTD., priority 2018, dated 2023).
